Assay results reported in PMC11329504, “Identification of novel small molecule-based strategies of COL7A1 upregulation and readthrough activity for the treatment of recessive dystrophic epidermolysis bullosa” (Scientific Reports, 2024).
Where two headings read alike, the source gives them in different places.

Columns and labels:
NHK cells = experiment: Cytotoxicity, ATP levels, normal human keratinocytes (NHK); type: cell-based; details: NHK cells, ATP levels, at 40 µM
Method: The viability of RDEB patient-derived cell lines or NHK was evaluated by measuring the ATP levels as an indirect readout of the potential cytotoxicity effect of compounds. Cells were plated and treated exactly with the same conditions as those followed in the AlphaLISA assay, described above. To measure ATP levels, cells were processed using the ATPlite™ 1step luminescence-based assay (PerkinElmer 6,016,731), following the manufacturer’s protocol. 25 μL of ATPlite™ reagent was added directly over cells and plates were covered with a sealing film and shaken for 25 min using a microtiter plate shaker. Luminescence was measured in a Luminoskan Ascent luminometer (Thermo Fisher Scientific). 10 μM of Staurosporine was used as a reference compound and control for the total cytotoxicity.

[1] = test system: total C7 in HEK293^R578X cells; experiment: AlphaLISA quantification of total C7 in recombinant HEK293^R578X cells; type: cell-based, human
Method: (§1) The AlphaLISA assay was developed in-house by using the biotin-conjugated rabbit polyclonal antibody anti-C7 (LSBio LS-298147) and conjugating the acceptor beads (PerkinElmer 6772001) to a monoclonal anti-Collagen type VII antibody produced in mouse, clone LH7.2 (Thermo MA5-13,432). Formulation of the mAb clone LH7.2 was exchanged to PBS and concentrated 5 × by using Amicon® Ultra-0.5 centrifugal filters up to 1 mg/ml. The conjugation procedure was carried out according to the protocol provided by PerkinElmer.
(§2) For compound treatment in RDEB patient-derived transformed keratinocytes, 5,000 cells were plated in 20 µL of supplemented KGM media containing 20 ng/mL TGFβ2 (SIGMA GF113) without GA-1000 in 384-well cell culture plates (Greiner 781098). The day after, 5 µL of test compounds prepared 5 × in supplemented KGM without GA-1000 were added over cells and incubated for 48 h at 37 °C and 5% CO2. For compound treatment in HEK293^R578X, 10,000 cells were plated in 20 μL of DMEM (High Glucose, 2 mM L-Glutamine, sodium pyruvate, and FBS 10%) in 384-well cell culture plates (Greiner 781,098,). The day after, 5 μL of test compounds prepared 5 × in DMEM complete medium were added over cells and incubated for 48 h at 37 °C and 5% CO2.
(§3) After the treatment process, 2.5 µL of RIPA buffer 10 x (Abcam ab156034) were added over the […] of cells for 20 min at room temperature to obtain a complete cell lysis. Then, 2 μL of sample (i.e., cell lysate with supernatant) were transferred to the AlphaLISA plate (PerkinElmer 6,059,340) containing […] of antibodies mixture ([…] of acceptor Beads-Ab and […] of biotin-rAb) prepared in AlphaLISA buffer 1 x (PerkinElmer AL00F). The reaction was incubated for 90 min at room temperature. Finally, 10 μL of […] of donor beads (PerkinElmer 6760002,) were added to the reaction under subdued light, mixed gently, and incubated for 3 h at room temperature. AlphaLISA signal was detected with an Envision microplate reader (Perkin Elmer) using the following setting: Filter: AlphaScreen, Excitation time: 180 ms, Integration time: 300 ms.
(§4) Statistical analyses were performed using GraphPad Prism v. 7.04 (La Jolla, California). Results are shown as mean ± SD of experimental replicates. Dose–response curves to assess compound treatment effect were plotted in a four-parameter logistic model. Relative EC50, representing the total drug concentration producing a 50% effect, was calculated in the four-parameter logistic equation. Comparisons of collagen protein and mRNA expression in different experimental conditions were made using ANOVA, followed by a post hoc test. statistical significance was considered with p values < 0.05.

[2] = test system: total (truncated + full length) C7 in RDEB_L1 cells; experiment: AlphaLISA quantification of total C7 in RDEB_L1 cells; type: cell-based, human
Method: as §1, §2, §3, §4

[3] = test system: total (truncated + full length) C7 in RDEB_L5 cells; experiment: AlphaLISA quantification of total C7 in RDEB_L5 cells; type: cell-based, human
Method: as §1, §2, §3, §4

[4] = test system: truncated and full-length C7 in RDEB_L1, RDEB_L5 and HEK293^R578X cells; experiment: Western blot detection of truncated and full-length C7; type: cell-based, human; details: RDEB_L1, RDEB_L5 and HEK293^R578X cells
Method: For western blot, RDEB or normal human keratinocytes were lysed in protein extraction buffer (50 mM Tris–HCl [pH 7.5], 100 mM NaCl, 1% Nonidet P-40, and 4 mM EDTA) containing proteinase inhibitors cocktail (Complete Mini, EDTA free; Roche Diagnostics, Mannheim, Germany). Lysates were incubated for 30 min on ice and centrifuged at 15,000 g for 30 min at 4 °C. Supernatants were then collected and concentrated by ultrafiltration using Amicon Ultra columns (10 kDa; Millipore, Ireland). Protein concentrations were measured using the Bradford assay (Bio-Rad, Hercules, CA). For each sample, […] total protein was resolved on NuPAGE Novex 3%–8% Tris–Acetate gel electrophoresis (Invitrogen, Carlsbad, CA) and electrotransferred to nitrocellulose membranes (Invitrogen, Carlsbad, CA). For type VII collagen analysis, blots were probed with a monospecific polyclonal anti-C7 antibody (a generous gift from Dr. A. Nystrom, University of Freiburg). Invitrogen anti-MDH1 polyclonal antibody (PA550446, 1:1000) was used to detect MDH1. Standard antibodies against a reference protein were used as a loading control, as indicated. Visualization of the resulting signal was performed by incubating with horseradish peroxidase (HRP)- conjugated anti-rabbit antibody (Amersham, Burlington, MA) and West Pico Chemiluminescent Substrate (Pierce, Rockford, IL).

## CN[C@@H]1[C@@H](O)[C@@H](O[C@@H]2[C@@H](O)[C@H](O[C@H]3O[C@H]([C@@H](C)O)[C@@H](O)[C@H](O)[C@H]3N)[C@@H](N)C[C@H]2N)OC[C@]1(C)O [Compound G418, G418, reference compound]
NHK cells
  Cytotox. % inhibition of viability: 30.8% ± 3.4 at 40 (n=4)
[1]; at 40 µM
  Increase in C7 levels Emax, % vs baseline: 71 ± 6 at 40 % vs baseline
[1]; total C7 AlphaLISA, 48 h, relative EC50, mean ± SD, read-out: Increase in C7 levels EC50
  EC50: 16 ± 0.09 µM
[2]; RDEB_L1 cells, at 20 µM, 20 ng/mL TGFß2
  Increase in C7 levels Emax, % vs baseline: 124 ± 76 at 20 % vs baseline
[2]; RDEB_L1 cells, read-out: EC50 in the AlphaLISA assay
  EC50: 4.9 µM
[2]; in RDEB_L1 and RDEB_L5 cells, read-out: EC50 (range over two cell lines)
  EC50: 4.9 to 12 µM
[3]; at 25 µM, 20 ng/mL TGFß2
  Increase in C7 levels Emax, % vs baseline: 35.5 at 25 % vs baseline
[3]; total C7 AlphaLISA, 48 h, 20 ng/mL TGFß2, relative EC50, mean ± SD, read-out: Increase in C7 levels EC50
  EC50: 12 µM
[4]
  C7 products induced, western blot: detectable upregulation of full length and truncated C7
